Data set [1] is described as follows: Pseudo-first order NaOH hydrolysis rates by UV spectrometry. To be noted: 1.0 mM antibiotic, 10.0 mM NaOH, 30.0° C. It is filed as physicochemical. As to the method:
Further, before choosing either cefoxitin or cefotaxime as the labeling reactant, it was verified that their uncatalyzed reactivity rates were as facile as that of ampicillin. Model reactions were performed comparing the (NaOH) hydrolysis rates of cefoxitin, cefotaxime, and ampicillin. Hydrolysis and acylation are mechanistically identical. Their pseudo-first order hydrolysis rates as measured by UV spectrometry (1.0 mM antibiotic, 10.0 mM NaOH, 30.0° C.) were virtually the same: […]

In data set [2] the test system is β-lactamase-producing E. coli (TG1 phage antibody E. coli). Put plainly: Growth of β-lactamase-producing E. coli on agar plates containing antibiotics. On the set-up: E. coli growth score on agar plate: key to the marks not given beside the values. Conditions: for Concentration toxic to β-lactamase-expressing E. coli / Concentration toxic to β-lactamase-expressing E. coli (toxic level): agar plates; for Concentration toxic to β-lactamase-expressing E. coli (toxic level): called IC50 in b119 and b167; for Antibiotic effect on β-lactamase-producing E. coli (in words): at the indicated concentrations of Table 2. It is filed as cell-based. As to the method: First, the ability of these candidate cephalosporins to kill the relevant β-lactamase-producing E. coli (TG1 phage antibody E. coli) was tested. […] This is presumably due to β-lactamase-catalyzed inactivation. […] Presumably, neither is inactivated by E. coli β-lactamase. […] More preferably, E. coli should be challenged with approximately 40-45 μM cefoxitin and 0.45-0.50 μM cefotaxime.
Next, the ability of the cephalosporins to kill the relevant β-lactamase-producing E. coli (TG1 phage antibody E. coli) was tested by growing the bacteria on agar plates containing the antibiotics. […] This is presumably due to β-lactamase-catalyzed inactivation. […] Presumably, neither is inactivated by E. coli β-lactamase.
A second experiment was performed in which E. coli was grown on agar plates containing varying amounts of cefotaxime.

In the next data set the target is TNFα (Homo sapiens, UniProt P01375). In words: ECL-based assay of TNFα binding to its receptor after incubation with label (sugars, ampicillin). How it is done: Experiments were conducted to determine whether catalytic antibodies can chemically modify and thereby inactivate disease-associated proteins. First, the reaction of reducing sugars with the disease-associated protein, tumor necrosis factor alpha (TNFα) was examined. In this reaction, the reducing sugar aldehyde covalently reacts with protein lysine sidechains. Chemical modification was detected using an ECL-based binding assay that measures the binding of TNFα to its receptor (an assay of biological function). […] Thus, chemical modification is a viable approach to inactivate proteins. Experiments were conducted to determine whether catalytic antibodies can inactivate disease-associated proteins. First, the reaction of reducing sugars with the disease-associated protein, tumor necrosis factor alpha (TNFα) was examined. In this reaction, the reducing sugar aldehyde covalently reacts with protein lysine sidechains. Chemical modification was detected using an ECL-based immunoassay that measures the binding of TNFα to its receptor. The assay is a sandwich format that uses antibodies directed against TNF and its receptor. One antibody is labeled with biotin, the other with an ECL label (TAG NHS Ester, IGEN International). When the TNF-TNF receptor complex is present, a sandwich complex comprising both a biotin and an ECL label is formed. This sandwich complex is captured on streptavidin-coated magnetic beads and measured using ECL detection. Alternatively, the TNF receptor may be directly biotinylated and the TNF target molecule labeled directly with the ECL label (or visa versa); in this alternative approach, no antibodies are necessary. […] Thus, chemical modification may be used to inactivate proteins. The uncatalyzed reaction between a β-lactam (ampicillin) and two proteins was also examined. Bovine serum albumin (BSA) and ampicillin were reacted overnight. […] Ampicillin was also reacted with TNFα overnight. […] Thus, this reaction is much more facile than the reaction of TNFα with reducing sugars.
Sequence of TNFα (P01375 77-233 limits assumed): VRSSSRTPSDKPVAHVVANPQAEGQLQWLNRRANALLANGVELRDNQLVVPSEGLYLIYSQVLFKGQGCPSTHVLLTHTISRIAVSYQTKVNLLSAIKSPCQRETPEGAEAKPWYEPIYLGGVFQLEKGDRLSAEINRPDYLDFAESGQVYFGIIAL

[3] abbreviates: first column, head printed 10 g/mL.
The mark [4] stands for this setting: second column, head printed 10 g/mL.

The structures appear in SMILES notation.

These results are taken from patent US20020182207A1, “Methods and compositions for modifying biologically active target molecules” (priority 2000, published 2002).

On to `CO/N=C(\C(=O)N[C@@H]1C(=O)N2C(C(=O)O)=C(COC(C)=O)CS[C@H]12)c1csc(N)n1` [Cefotaxime], for which the “Pseudo-first order hydrolysis rate” value in data set [1] worked out at 0.0041 min⁻¹. For the same compound, the “Concentration toxic to β-lactamase-expressing E. coli” value in data set [2] was approximately 0.25 µM. Further, in data set [2], the “Concentration toxic to β-lactamase-expressing E. coli (toxic level)” value was approximately 0.12 µg/mL. In data set [2], the “Antibiotic effect on β-lactamase-producing E. coli (in words)” value (from here on “Antibiotic effect”) is “excellent antibiotic effects”. Besides, the “# of E. coli colonies” value came out at 225 in data set [2] (cefotaxime concentration 0.04 μg/mL), 5 in data set [2] (cefotaxime concentration 0.12 μg/mL), 0 in data set [2] (cefotaxime concentration 0.37 μg/mL) and 0 in data set [2] (cefotaxime concentration 1.11 μg/mL).
For `OC[C@H]1O[C@@](CO)(O[C@H]2O[C@H](CO)[C@@H](O)[C@H](O)[C@H]2O)[C@@H](O)[C@@H]1O` [sucrose], the “Inactivation of TNFα receptor binding (in words)” value on TNFα (2-week incubation period) is “did not inactivate TNFα”.
In the case of `N[C@@H](C(=O)N[C@@H]1C(=O)N2C(C(=O)O)=C(Cl)CS[C@H]12)c1ccccc1` [Cefaclor], the “Antibiotic effect” value in data set [2] is recorded as “little or no antibiotic effect”. Moreover, in data set [2] (setting [3]), the “E. coli growth score on agar plate” value is “+++++”.
`CO[C@@]1(NC(=O)Cc2cccs2)C(=O)N2C(C(=O)O)=C(COC(N)=O)CS[C@@H]21` [Cefoxitin]: the “Pseudo-first order hydrolysis rate” value in data set [1] worked out at 0.00438 min⁻¹. For the same compound, in data set [2], the “Concentration toxic to β-lactamase-expressing E. coli” value was approximately 22 µM, the “Concentration toxic to β-lactamase-expressing E. coli (toxic level)” value is “approximately 10 μg/mL” and the “Antibiotic effect” value was “excellent antibiotic effects”. The “Number of E. coli colonies on agar plate” value in data set [2] (setting [3]) came to 30 colonies.
With `O=C[C@H](O)[C@@H](O)[C@@H](O)[C@H](O)CO` [Galactose], the “TNFα receptor binding following incubation with sugar (control buffer = 1.00, arbitrary)” value on TNFα (incubation time: 7 days) is listed as 0.89; on TNFα (incubation time: 14 days), 0.82; on TNFα (incubation time: None), 1.00.
In the case of `CC1(C)S[C@@H]2[C@H](NC(=O)[C@H](N)c3ccccc3)C(=O)N2[C@H]1C(=O)O` [Ampicillin], the “Pseudo-first order hydrolysis rate” value in data set [1] stood at 0.00564 min⁻¹. Besides, the “Antibiotic effect” value in data set [2] is listed as “little or no antibiotic effect”. The “E. coli growth score on agar plate” value in data set [2] (setting [3]) and in data set [2] (setting [4]) was “+++++” each time. The “Loss of TNFα biological activity according to the receptor binding assay” value at TNFα (reacted with TNFα overnight, uncatalyzed) worked out at 16%.
Regarding `CC(=O)OCC1=C(C(=O)O)N2C(=O)[C@@H](NC(=O)Cc3cccs3)[C@H]2SC1` [Cephalothin], in data set [2], the “Antibiotic effect” value was “little or no antibiotic effect”. Moreover, the “E. coli growth score on agar plate” value in data set [2] (setting [3]) and in data set [2] (setting [4]) was “+++++” throughout.
Regarding `O=C(CO)[C@@H](O)[C@H](O)[C@H](O)CO` [Fructose], the entries for the “TNFα receptor binding following incubation with sugar (control buffer = 1.00, arbitrary)” value at TNFα (incubation time: 7 days), on TNFα (incubation time: 14 days) and at TNFα (incubation time: None) were 0.79, 0.67 and 1.02, respectively.
